{"source": "paper PMC5103170", "about": "“Total Synthesis, Structure, and Biological Activity of Adenosylrhodibalamin, the Non‐Natural Rhodium Homologue of Coenzyme B12” (Angewandte Chemie (International Ed. in English), 2016)", "target": "T1, 1,2-propanediol dehydratase (PduCDE) (Citrobacter freundii, UniProt P0DUM7+P0DUM8)", "T1 construct": "gene pduC; purified enzyme, alpha2beta2gamma2; construct details only in Supporting Information; with Propanediol dehydratase small subunit", "T1 sequence (P0DUM7 1-554)": "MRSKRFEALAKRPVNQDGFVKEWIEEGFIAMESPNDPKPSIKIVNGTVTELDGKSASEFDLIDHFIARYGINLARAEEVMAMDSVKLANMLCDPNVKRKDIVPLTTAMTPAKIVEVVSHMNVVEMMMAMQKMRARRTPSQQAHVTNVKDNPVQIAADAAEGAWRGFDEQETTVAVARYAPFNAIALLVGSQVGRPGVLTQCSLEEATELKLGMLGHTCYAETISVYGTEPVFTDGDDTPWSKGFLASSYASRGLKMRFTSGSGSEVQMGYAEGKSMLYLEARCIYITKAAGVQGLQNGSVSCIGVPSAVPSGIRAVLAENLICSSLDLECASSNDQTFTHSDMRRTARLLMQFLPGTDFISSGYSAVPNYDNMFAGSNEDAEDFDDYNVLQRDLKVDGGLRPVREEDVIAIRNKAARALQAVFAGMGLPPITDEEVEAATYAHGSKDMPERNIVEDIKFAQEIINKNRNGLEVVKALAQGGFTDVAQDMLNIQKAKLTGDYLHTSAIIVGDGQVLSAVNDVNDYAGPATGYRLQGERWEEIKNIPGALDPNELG", "T1 sequence (P0DUM8 1-224)": "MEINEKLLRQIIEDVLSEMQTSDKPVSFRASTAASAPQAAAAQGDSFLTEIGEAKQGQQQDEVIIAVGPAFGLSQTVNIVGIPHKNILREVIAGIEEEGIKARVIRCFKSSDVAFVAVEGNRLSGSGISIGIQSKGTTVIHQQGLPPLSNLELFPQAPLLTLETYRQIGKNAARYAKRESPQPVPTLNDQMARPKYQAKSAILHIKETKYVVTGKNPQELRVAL", "T1 sequence (P0DUM9 1-172 partner)": "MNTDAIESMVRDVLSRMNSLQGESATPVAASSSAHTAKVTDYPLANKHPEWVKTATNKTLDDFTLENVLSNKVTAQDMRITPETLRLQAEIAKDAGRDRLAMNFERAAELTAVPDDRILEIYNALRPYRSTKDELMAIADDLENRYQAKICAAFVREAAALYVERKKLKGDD", "assay": "enzyme inhibition kinetics, non-linear regression", "assay_type": "biochemical", "settings": "competitive with AdoCbl", "data": [{"substance": "AdoRbl", "values": [{"measurement": "Ki", "setting": "inactive as pseudo-coenzyme", "value": 6.9, "unit": "µM"}]}, {"substance": "vitamin B12", "values": [{"measurement": "Ki", "value": 2.5, "unit": "µM"}]}]}
